Measured values: PubChem BioAssay AID1117277 (The Scripps Research Institute Molecular Screening Center, 2014)
Active and inactive are the calls of the source. No rule for the calls is given here.

System: Jurkat human T cells viability, luminescence (cytotoxicity counterscreen)
Assay: viability loss in human Jurkat cells – cell-based, luminescence, cytotoxicity control, dose response (AID 1117277)

Question: Which IC50 does the source give for `O=C(C[N+]12CCC(CC1)C(OC(=O)c1ccccc1)C2)c1ccc([N+](=O)[O-])cc1` (stereo unspecified) here?
Answer: The IC50 was > 83.3 µM (inactive).
